Assay results from paper PMC10353187, “Discovery of a new potent oxindole multi-kinase inhibitor among a series of designed 3-alkenyl-oxindoles with ancillary carbonic anhydrase inhibitory activity as antiproliferative agents” (BMC Chemistry, 2023).

Legend:
KM12 = experiment: NCI-60 single-dose antiproliferative assay (SRB); format: cell-based; conditions: Homo sapiens; 10 μM single dose; KM12, Colon cancer; read-out: Cell Growth inhibition Percent
Outline: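 The tumour lines, maintained in RPMI 1640 supplemented with 5% fetal bovine serum, received each compound at one concentration (10 µM) for 48 h at 37 °C. Cell mass was quantified by SRB binding (515 nm) and expressed as percentage growth inhibition.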

MALME-3 M = experiment: NCI-60 single-dose antiproliferative assay (SRB); format: cell-based; conditions: Homo sapiens, 10 μM single dose, Melanoma, read-out: Cell Growth inhibition Percent
Outline: (§1)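 Single dose 10 µM (final), 48 h, 37 °C, 5% CO2; RPMI 1640/5% FBS. Endpoint: TCA fixation, 0.4% SRB, absorbance 515 nm. % growth = (Ti–Tz)/(C–Tz)×100, or (Ti–Tz)/Tz×100 when Ti < Tz; reported as GI%.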

NCI-H226 = experiment: NCI-60 single-dose antiproliferative assay (SRB); format: cell-based; conditions: Homo sapiens; 10 μM single dose; NCI-H226, Non-small cell lung cancer; read-out: Cell Growth inhibition Percent
Outline: as §1

SF-539 = experiment: NCI-60 single-dose antiproliferative assay (SRB); format: cell-based; conditions: Homo sapiens; 10 μM single dose; SF-539, CNS cancer; read-out: Cell Growth inhibition Percent
Outline: as §1

SW-620 = experiment: NCI-60 single-dose antiproliferative assay (SRB); format: cell-based; conditions: Homo sapiens; 10 μM single dose; SW-620, Colon cancer; read-out: Cell Growth inhibition Percent
Outline: as §1

UO-31 = experiment: NCI-60 single-dose antiproliferative assay (SRB); format: cell-based, human; conditions: UO-31, Renal cancer; for inhibition at 10 µM: Homo sapiens, UO-31, 10 μM single dose, read-out: Cell Growth inhibition Percent
Protocol: From the newly synthesized compounds, eleven compounds (4c, 4d, 5, 9a, 9b, 11a, 11b, 13b, 13c, 15b, and 15c) were selected by the National Cancer Institute (NCI) Developmental Therapeutics Program (DTP), Bethesda, Maryland, USA for the in vitro anti-proliferative activity evaluation. The selected compounds were examined at 10 μM dose against the NCI 60-cell line panel. This panel consists of nine cell line groups of leukemia, non-small cell lung carcinoma (NSCLC), melanoma, colon, CNS, ovarian, renal, prostate, and breast cancers. The results are reported as mean-graph of the percent growth relative to control and presented as percentage growth inhibition (GI%), furthermore, mean GI% of each compound over all panel cell lines was calculated (Table 1; Additional file 1; S3: In vitro biological activity).
From the newly synthesized compounds, eleven compounds were selected by the National Cancer Institute (NCI) Developmental Therapeutics Program (DTP), Bethesda, Maryland, USA for the in vitro anti-proliferative activity evaluation (For further details see supplementary materials).
NCI In-vitro Cancer Screening is a two-phase procedure that starts with the assessment of all compounds against the sixty NCI cell line panel depicting leukemia, NSCLC, CNS cancer, melanoma, prostate cancer, breast cancer, renal cancer, colon cancer and ovarian cancer cell lines at a single point of 10μM. The output from the single-dose screen is reportable as a mean graph.
The human tumor cell lines of the cancer screening panel were grown in RPMI 1640 medium containing 5% fetal bovine serum and 2 mM L-glutamine. For a typical screening experiment, cells were inoculated into 96 well microtiter plates in […] at plating densities ranging from 5000 to 40,000 cells/well depending on the doubling time of individual cell lines. After cell inoculation, the microtiter plates were incubated at 37 °C, 5% CO2, 95% air and 100% relative humidity for 24 h prior to addition of experimental drugs. After 24 h, two plates of each cell line were fixed in situ with trichloroacetic acid (TCA), to represent a measurement of the cell population for each cell line at the time of drug addition (Tz). Experimental drugs were solubilized in dimethyl sulfoxide at 400-fold the desired final maximum test concentration and stored frozen prior to use. At the time of drug addition, an aliquot of frozen concentrate was thawed and diluted to twice the desired final maximum test concentration with complete medium containing 50 µg/ml gentamicin. Aliquot of 100 µl of the drug dilution was added to the appropriate microtiter wells already containing 100 µl of medium, resulting in the required final drug concentration (10 µM). Triplicate wells were prepared for each individual dose. Following drug addition, the plates were incubated for an additional 48 h at 37 °C, 5% CO2, 95% air, and 100% relative humidity. For adherent cells, the assay was terminated by the addition of cold TCA. Cells were fixed in situ by the gentle addition of 50 µl of cold 50% (w/v) TCA (final concentration, 10% TCA) and incubated for 60 min at 4 °C. The supernatant was discarded, and the plates were washed five times with tap water and air dried. Sulforhodamine B (SRB) solution (100 µl) at 0.4% (w/v) in 1% acetic acid was added to each well, and plates were incubated for 10 min at room temperature. After staining, unbound dye was removed by washing five times with 1% acetic acid and the plates were air dried. Bound stain was subsequently solubilized with 10 mM trizma base, and the absorbance was read on an automated plate reader at a wavelength of 515 nm. For suspension cells, the methodology was the same except that the assay was terminated by fixing settled cells at the bottom of the wells by gently adding 50 µl of 80% TCA (final concentration, 16% TCA). […]

hCA I = hCA I (Homo sapiens, UniProt P00915); experiment: Stopped flow CO2 hydrase assay
hCA I, sequence (P00915 whole entry): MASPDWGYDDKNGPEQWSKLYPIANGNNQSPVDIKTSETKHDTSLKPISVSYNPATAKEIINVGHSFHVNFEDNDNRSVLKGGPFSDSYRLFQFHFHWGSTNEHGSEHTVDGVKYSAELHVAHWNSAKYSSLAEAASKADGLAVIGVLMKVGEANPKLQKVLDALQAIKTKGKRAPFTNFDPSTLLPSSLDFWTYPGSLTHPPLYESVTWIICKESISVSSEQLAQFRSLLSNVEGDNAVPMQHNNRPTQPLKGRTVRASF

hCA II = hCA II (Homo sapiens, UniProt P00918); experiment: Stopped flow CO2 hydrase assay
hCA IX = hCA IX (Homo sapiens, UniProt Q16790); experiment: Stopped flow CO2 hydrase assay; conditions: for Selectivity ratio I/IX: Ki hCA I / Ki hCA IX; for Selectivity ratio II/IX: Ki hCA II / Ki hCA IX
hCA XII = hCA XII (Homo sapiens, UniProt O43570); experiment: Stopped flow CO2 hydrase assay; conditions: for Selectivity ratio I/XII: Ki hCA I / Ki hCA XII; for Selectivity ratio II/XII: Ki hCA II / Ki hCA XII
hCA XII, sequence (O43570 25-354): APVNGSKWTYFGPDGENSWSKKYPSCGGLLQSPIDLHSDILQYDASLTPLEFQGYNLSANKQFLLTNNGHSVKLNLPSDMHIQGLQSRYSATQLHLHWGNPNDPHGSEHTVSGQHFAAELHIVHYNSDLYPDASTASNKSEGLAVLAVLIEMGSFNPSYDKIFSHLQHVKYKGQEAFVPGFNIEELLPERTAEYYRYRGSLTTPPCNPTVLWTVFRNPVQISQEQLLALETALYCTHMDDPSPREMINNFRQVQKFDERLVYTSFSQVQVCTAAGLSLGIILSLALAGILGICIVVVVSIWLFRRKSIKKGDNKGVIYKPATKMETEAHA

OVCAR-8 = experiment: NCI-60 single-dose antiproliferative assay (SRB); format: cell-based; conditions: Homo sapiens; 10 μM single dose; OVCAR-8, Ovarian Cancer; read-out: Cell Growth inhibition Percent
Outline: as §1

SF-295 = experiment: NCI-60 single-dose antiproliferative assay (SRB); format: cell-based; conditions: Homo sapiens; 10 μM single dose; SF-295, CNS cancer; read-out: Cell Growth inhibition Percent
Outline: as §1

SK-OV-3 = experiment: NCI-60 single-dose antiproliferative assay (SRB); format: cell-based; conditions: Homo sapiens; 10 μM single dose; SK-OV-3, Ovarian Cancer; read-out: Cell Growth inhibition Percent
Outline: as §1

NCI-H460 = experiment: NCI-60 single-dose antiproliferative assay (SRB); format: cell-based; conditions: Homo sapiens; 10 μM single dose; NCI-H460, Non-small cell lung cancer; read-out: Cell Growth inhibition Percent
Outline: as §1

MDA-MB-435 = experiment: NCI-60 single-dose antiproliferative assay (SRB); format: cell-based; conditions: Homo sapiens; 10 μM single dose; MDA-MB-435, Melanoma; read-out: Cell Growth inhibition Percent
Outline: as §1

HCT-116 = experiment: NCI-60 single-dose antiproliferative assay (SRB); format: cell-based; conditions: Homo sapiens; 10 μM single dose; HCT-116, Colon cancer; read-out: Cell Growth inhibition Percent
Outline: as §1

MDA-MB-468 = experiment: NCI-60 single-dose antiproliferative assay (SRB); format: cell-based; conditions: Homo sapiens; 10 μM single dose; MDA-MB-468, Breast cancer; read-out: Cell Growth inhibition Percent
Outline: as §1

RPMI-8226 = experiment: NCI-60 single-dose antiproliferative assay (SRB); format: cell-based; conditions: Homo sapiens; 10 μM single dose; RPMI-8226, Leukemia; read-out: Cell Growth inhibition Percent
Outline: as §1

Structure (SMILES)	inhibition at 10 µM (KM12)	inhibition at 10 µM (MALME-3 M)	inhibition at 10 µM (NCI-H226)	inhibition at 10 µM (SF-539)	inhibition at 10 µM (SW-620)	inhibition at 10 µM (UO-31)	Ki (hCA I)	Ki (hCA II)	Ki (hCA IX)	Ki (hCA XII)	inhibition at 10 µM (OVCAR-8)	inhibition at 10 µM (SF-295)	inhibition at 10 µM (SK-OV-3)	Selectivity ratio I/IX (hCA IX)	Selectivity ratio II/IX (hCA IX)	Selectivity ratio I/XII (hCA XII)	Selectivity ratio II/XII (hCA XII)	inhibition at 10 µM (NCI-H460)	inhibition at 10 µM (MDA-MB-435)	inhibition at 10 µM (HCT-116)	further results
O=C1Nc2ccccc2C1=CNc1ccc(C(=O)O)cc1 [Compound 4c, 4-{[(2-Oxoindolin-3-ylidene)methyl]amino}benzoic acid]	49.2%	0.23%	11.4%	2.79%	4.95%	49.7%	6.32 µM	8.67 µM	> 10 µM	> 10 µM	–	–	–	–	–	–	–	–	–	–	–
NS(=O)(=O)c1nnc(NC=C2C(=O)Nc3ccccc32)s1 [Compound 4d, 5-{[(2-Oxoindolin-3-ylidene)methyl]amino}-1,3,4-thiadiazole-2-sulfonamide]	4.63%	–	4.95%	3.69%	–	27.5%	0.0084 µM	0.0039 µM	0.0842 µM	0.0087 µM	0.12%	0.84%	0.47%	0.100	0.046	0.966	0.448	–	–	–	–
NS(=O)(=O)N/C=C1/C(=O)Nc2ccccc21 [Compound 5, 3-(sulfamidmethylene)indoline-2-one]	1.51%	–	8.23%	–	–	34.6%	6.35 µM	0.913 µM	0.208 µM	0.0424 µM	–	–	5.43%	30.48	4.39	149.65	21.54	–	–	–	–
O=C1Nc2ccccc2C1=CNc1ccc(C(=O)Nc2ccc(S(=O)(=O)Nc3ncccn3)cc2)cc1 [Compound 9b, 4-{[(2-Oxoindolin-3-ylidene)methyl]amino}-N-{4-[N-(pyrimidin-2-yl)sulfamoyl]phenyl}benzamide]	43.9%	2.09%	12.2%	5.04%	–	43.7%	> 10 µM	> 10 µM	> 10 µM	> 10 µM	–	–	–	–	–	–	–	1.64%	–	–	–
NS(=O)(=O)c1ccc(NCc2ccc(NC=C3C(=O)Nc4ccccc43)cc2)cc1 [Compound 11a, 4-{[4-({[2-Oxoindolin-3-ylidene]methyl}amino)benzyl]amino}benzenesulfonamide]	13.9%	3.16%	19.1%	–	–	44%	0.321 µM	0.746 µM	0.217 µM	0.0786 µM	–	–	–	1.48	3.43	4.08	9.50	–	2.04%	–	–
O=C1Nc2ccccc2C1=CNc1ccc(CNc2ccc(S(=O)(=O)Nc3ncccn3)cc2)cc1 [Compound 11b, 4-{[4-({[2-Oxoindolin-3-ylidene]methyl}amino)benzyl]amino}-N-(pyrimidin-2-yl)benzenesulfonamide]	77.3%	–	16.8%	–	4.6%	39.3%	9.11 µM	2.66 µM	7.86 µM	8.57 µM	1.39%	0.84%	–	1.16	0.34	1.06	0.31	4.26%	32%	13.4%	inhibition at 10 µM (MDA-MB-468): 7.66%; inhibition at 10 µM (RPMI-8226): 28.9%; Cell Growth inhibition Percent (UO-31; 10 μM single dose): 39.47%
O=C1Nc2ccccc2C1=CNc1ccc(C(=O)C=CNc2nccs2)cc1 [Compound 13c, 3-{[(4-{3-[Thiazol-2-ylamino]acryloyl}phenyl)amino]methylene}indolin-2-one]	59%	–	1.09%	1.96%	–	16.2%	> 10 µM	> 10 µM	> 10 µM	> 10 µM	–	–	3.75%	–	–	–	–	7.04%	1.15%	21.9%	inhibition at 10 µM (MDA-MB-468): 23.5%; inhibition at 10 µM (RPMI-8226): 35%
O=C(Nc1ccc(NC=C2C(=O)Nc3ccccc32)cc1)Nc1nccs1 [Compound 15c, 1-{4-[((2-Oxoindolin-3-ylidene)methyl)amino]phenyl}-3-(thiazol-2-yl)urea]	40.8%	53.1%	70%	66.4%	78.6%	51.6%	> 10 µM	> 10 µM	> 10 µM	> 10 µM	44.3%	29.4%	45%	–	–	–	–	83.2%	153%	73%	inhibition at 10 µM (MDA-MB-468): 102%; inhibition at 10 µM (RPMI-8226): 16.4%
